# Reference: article PMC5365251, “Biophysical assay for tethered signaling reactions reveals tether-controlled activity for the phosphatase SHP-1” (Science Advances, 2017)
# How the values were obtained:
# [1] = target: T1, SHP-1 (Mus musculus, UniProt P29351); assay: SPR of SHP-1 injected over ITIM peptides with different PEG linker lengths: reach and tethered catalysis (MPDPDE fit); type: biochemical, murine; details: for kcat*(tethered) versus tether length: SHP-1 over peptides with shorter PEG linkers, compared with PEG28-ITIM, Fig. 5B; for L (reach parameter) versus tether length: SHP-1 over peptides, average fit, PEG28 n = 15, PEG0 n = 2, 10°C, HBS-EP pH 7.4
# T1 construct: 6xHis (N); made in house; host or cells: Escherichia coli BL21-CodonPlus (DE3)-RIPL
# Experimental: (§1) A construct expressing murine SHP-1 with an N-terminal 6× His tag was provided by M. H. Brown. Mutation of the SH2 domains was performed using a quick-change strategy. The mutations introduced were R30K and R33E for the N-terminal SH2 domain mutant and R136K for the C-terminal SH2 domain mutant previously shown to result in loss of binding ([6]). All peptides were ordered from PeptideSynthetics and were certified to be >95% pure. Peptides sequences were derived from the membrane-proximal ITIM sequence of mouse LAIR-1 receptor.
# (§2) Experiments were performed on a Biacore 3000 instrument (GE Healthcare Life Sciences). All experiments were performed at 10°C and with a buffer flow rate of 10 μl/min. The buffer used was Hepes-buffered saline (HBS-EP; GE Healthcare Life Sciences), which contained 10 mM Hepes (pH 7.4), 150 mM NaCl, 3 mM EDTA, and 0.005% Surfactant P20.
# (§3) A CM5 sensorchip was coupled with streptavidin to near saturation (typically between 4000 and 7000 RU) using the amine coupling kit (GE Healthcare Life Sciences) as described previously ([42]). After streptavidin was coupled, biotinylated peptides were injected to give the indicated concentrations in experimental flow cells, and excess biotin-binding sites were blocked with biotin in HBS-EP. The molar ratio of peptide to streptavidin was kept below 1:1 to ensure that peptide immobilization was random and not clustered on the tetravalent streptavidin molecules. Reference flow cells were treated with buffer and then blocked with biotin; pilot experiments using unphosphorylated control peptides in reference flow cells were indistinguishable from buffer-treated reference flow cells when injected with SHP-1. The chip surface was then conditioned with 5 × 5-min injections of HBS-EP. SHP-1 protein in HBS-EP with 1 mM dithiothreitol was then injected over reference and experimental flow cells in series for 5 min at the indicated concentrations. All SPR data were converted from the reference-subtracted data (in resonance units) to fraction bound by dividing the resonance units by the theoretical maximum resonance units expected if the experimental flow cell was saturated with bound SHP-1.
# The five fitting parameters (p1, p2, p3, p4, and p5) are related to the five biophysical/biochemical constants as follows: p1 = kon [SHP-1], p2 = koff, p3=kcat*(tethered)× [peptide], p4=kcat*(tethered)/L^3 , and p5=kcat*(solution)× [SHP-1].
# The MPDPDE model was fit to the experimental data using lsqcurvefit in Matlab (Mathworks). Specifically, the value of nB from the MPDPDE model was fit to the experimental SPR data that were normalized to maximum binding. Each fit was repeated multiple times with different initial guesses for the five fitting parameters to make certain that the best fit was achieved (global convergence). […]
# [2] = target: T1, SHP-1; assay: SPR of SHP-1 injected over ITIM peptides: SHP-1 binding to the peptides; set-up: species or system murine; details: SHP-1 over peptides with shorter PEG linkers, compared with PEG28-ITIM; Fig. 5B
# Experimental: as §1, §2
# A CM5 sensorchip was coupled with streptavidin to near saturation (typically between 4000 and 7000 RU) using the amine coupling kit (GE Healthcare Life Sciences) as described previously ([42]). After streptavidin was coupled, biotinylated peptides were injected to give the indicated concentrations in experimental flow cells, and excess biotin-binding sites were blocked with biotin in HBS-EP. […]
# [3] = tested on: PEG28-ITIM; assay: SPR of SHP-1 injected over immobilised PEG28-ITIM: tethered/solution catalysis and reach (MPDPDE fit); type: biochemical, mouse; details: for L (reach parameter), SH2 variants / allosteric activation (in words), SH2 variants: SHP-1 variants over PEG28-ITIM; for L (reach parameter), SH2 variants: average fit Fig. 6B: WT n = 15, N-SH2 mutant n = 3, C-SH2 mutant n = 9
# Experimental: as §1, §2, §3
# To determine the concentration of peptide in the assays, we first needed a conversion factor between the resonance units and the mass of peptide at the chip surface. We determined this conversion factor by injecting four concentrations of SHP-1 over a control flow cell on a CM5 chip and plotting the mass of SHP-1 injected against the raw resonance unit change. We repeated this on seven flow cells across four sensor chips to get an average slope of 149 ± 15 RU per g/liter (±SEM). This constant, together with the molecular weight of the peptide, was used to convert between the resonance units of peptides immobilized and the molar concentration at the chip surface. For example, 48.5 RU of PEG28-ITIM (molecular weight, 3221) was immobilized to obtain [peptide] = 97.1 μM (Fig. 2A).
# From the MPDPDE model–simulated SPR traces, one would predict that the kcat*(solution) (fig. S4, G and H) and L (fig. S4F) are likely to be very sensitive to small systematic errors in the SPR trace at longer time scales. Nonspecific binding and baseline drift are two well-known sources of such systemic errors that can produce artifacts at long time scales (see fig. S6A for examples). To exclude data affected by these artifacts, we propose a simple quality control check that greatly improves the accuracy of estimating L, kcat*(tethered) , and kcat*(solution) . As a measure of the signal-to-noise ratio at long time points, we took the resonance units 20 s after the injection was completed (noise) and divided it by the resonance units 20 s before the injection finished (signal). […] Data that had evidence of significant artifact were excluded from the study based on this criterion (red data points in fig. S6B). […]
# [4] = tested on: PEG28-ITIM; assay: SPR of SHP-1 injected over immobilised PEG28-ITIM: binding constants (MPDPDE fit); set-up: species or system mouse; details: SHP-1 variants over PEG28-ITIM, compared with wild-type
# Experimental: as §1, §2, §3
# To determine the concentration of peptide in the assays, we first needed a conversion factor between the resonance units and the mass of peptide at the chip surface. We determined this conversion factor by injecting four concentrations of SHP-1 over a control flow cell on a CM5 chip and plotting the mass of SHP-1 injected against the raw resonance unit change. We repeated this on seven flow cells across four sensor chips to get an average slope of 149 ± 15 RU per g/liter (±SEM). […]
# T1 sequence (P29351 whole entry): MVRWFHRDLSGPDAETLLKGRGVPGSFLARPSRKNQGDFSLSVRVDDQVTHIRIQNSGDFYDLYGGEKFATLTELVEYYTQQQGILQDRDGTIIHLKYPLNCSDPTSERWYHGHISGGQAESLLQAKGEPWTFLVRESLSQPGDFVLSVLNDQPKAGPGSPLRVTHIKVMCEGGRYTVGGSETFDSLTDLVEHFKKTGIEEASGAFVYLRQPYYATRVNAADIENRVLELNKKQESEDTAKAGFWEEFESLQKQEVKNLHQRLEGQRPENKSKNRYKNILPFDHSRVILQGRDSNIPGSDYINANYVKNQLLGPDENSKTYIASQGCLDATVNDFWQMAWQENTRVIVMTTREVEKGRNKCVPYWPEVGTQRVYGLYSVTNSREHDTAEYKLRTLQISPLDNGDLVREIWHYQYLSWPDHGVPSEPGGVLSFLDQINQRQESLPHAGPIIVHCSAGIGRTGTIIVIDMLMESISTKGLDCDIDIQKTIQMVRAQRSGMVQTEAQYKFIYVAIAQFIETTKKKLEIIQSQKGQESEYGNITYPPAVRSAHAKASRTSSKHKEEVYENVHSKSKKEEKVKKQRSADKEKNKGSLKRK
Substance,kcat*(tethered) versus tether length [1],kon versus tether length [2],L (reach parameter) versus tether length [1] [nm],"L (reach parameter), SH2 variants [3] [nm]","allosteric activation (in words), SH2 variants ([3]; Fig. 6B)",other results
Biotin-(PEG)3-DLQEVTY*IQLDHH [PEG3-ITIM],decrease,decrease,–,–,–,–
Biotin-(PEG)28-DLQEVTY*IQLDHH [PEG28-ITIM],–,–,23,–,–,–
Biotin-GDLQEVTY*IQLDHH [PEG0-ITIM],decrease,decrease,17,–,–,–
C-terminal mutant: SHP-1 with R136K mutation in the C-terminal SH2 domain,–,–,–,23.9,allosteric activation is observed in both cases,"binding to ITIM peptide (in words), SH2 variants [4]: weak effect on binding"
N-terminal mutant: SHP-1 with R30K and R33E mutations in the N-terminal SH2 domain,–,–,–,16.5,still exhibited allosteric activation,"kcat*(tethered) over kcat*(solution), SH2 mutant ([3]; N-SH2 mutant SHP-1 over PEG28-ITIM, n = 3): 10 fold; allosteric activation (in words), SH2 variants ([3]; Fig. 6B, listed as N-terminal SH2 (N-SH2) mutant SHP-1): allosteric activation is observed in both cases; reach (in words), SH2 variants ([3]; binding via C-terminal compared to N-terminal SH2 domain, PEG28-ITIM, Fig. 6B): reduced reach; binding to ITIM peptide (in words), SH2 variants ([4]; listed as Mutation of the N-terminal SH2 domain): drastically reduced binding; binding to ITIM peptide (in words), SH2 variants ([4]; listed as N-terminal SH2 (N-SH2) mutant SHP-1): weak binding"
